These results are taken from ChEMBL document CHEMBL3046040, “Synthesis, cytostatic and anti-viral activity evaluation of the novel acyclic nucleoside analogues containing a sterically constrained (Z)-4-amino-2-butenyl moiety” (Med Chem Res, 2011).

One assay concerns Influenza A virus H3N2. The assay can be described thus: Antiviral activity against Influenza A virus H3N2 infected MDCK cells assessed as inhibition of virus-induced cytopathic effect. The format is functional, organism-based. Background: Protection from cytopathic effect is a common read-out in antiviral testing.
The subject of the next assay is Influenza B virus. The assay can be described thus: Antiviral activity against Influenza B virus infected MDCK cells assessed as inhibition of virus-induced cytopathic effect. The format is functional, organism-based.
A further assay relates to Influenza A virus. The assay can be described thus: Antiviral activity against Unidentified Influenza A virus ([…]) infected MDCK cells assessed as inhibition of virus-induced cytopathic effect. The settings on record: Influenza A virus (H1N1). The assay is classed as functional, organism-based.
For assay [1], the system named is Respiratory syncytial virus. The assay is described as follows: Antiviral activity against Respiratory syncytial virus infected HeLa cells assessed as inhibition of virus-induced cytopathic effect. The format is functional, organism-based.
In assay [2] the test system is Coxsackievirus B4. The assay is described as follows: Antiviral activity against Human coxsackievirus B4 infected HeLa cells assessed as inhibition of virus-induced cytopathic effect. The format is functional, organism-based.
The subject of assay [3] is Vesicular stomatitis virus. The assay can be described thus: Antiviral activity against Vesicular stomatitis virus infected HeLa cells assessed as inhibition of virus-induced cytopathic effect. The format is functional, organism-based.
Another assay deals with Punta Toro virus. The assay can be described thus: Antiviral activity against Punta Toro virus infected Vero cells assessed as inhibition of virus-induced cytopathic effect. The format is functional, organism-based.
In assay [4] the test system is Coxsackievirus B4. The assay can be described thus: Antiviral activity against Human coxsackievirus B4 infected Vero cells assessed as inhibition of virus-induced cytopathic effect. The assay is classed as functional, organism-based.
The next assay deals with Sindbis virus. The assay can be described thus: Antiviral activity against Sindbis virus infected Vero cells assessed as inhibition of virus-induced cytopathic effect. The format is functional, organism-based.
The subject of a further assay is Reovirus sp. The assay is described as follows: Antiviral activity against Mammalian orthoreovirus 1 infected Vero cells assessed as inhibition of virus-induced cytopathic effect. The assay is classed as functional, organism-based.
In a further assay the test system is Human respirovirus 3. The assay is described as follows: Antiviral activity against Human parainfluenza virus 3 infected Vero cells assessed as inhibition of virus-induced cytopathic effect. The format is functional, organism-based.
In the next assay the test system is Human alphaherpesvirus 2. The assay is described as follows: Antiviral activity against Human herpesvirus 2 strain G infected HEL cells assessed as inhibition of virus-induced cytopathic effect. The assay is classed as functional, organism-based.
A further assay concerns Human alphaherpesvirus 1. The assay is described as follows: Antiviral activity against Human herpesvirus 1 strain KOS infected in HEL cells assessed as inhibition of virus-induced cytopathic effect. The assay is classed as functional, organism-based.
Assay [5] concerns Human immunodeficiency virus 1. The assay can be described thus: Antiviral activity against Human immunodeficiency virus 1 IIIB infected CEM cells assessed as inhibition of virus-induced giant cell formation after 4 days by microscopic analysis. The note with it: CCRF-CEM, 96 h. The assay is classed as functional, organism-based.
Another assay deals with WI-38. The assay is described as follows: Antiproliferative activity against Homo sapiens (human) WI38 cells by MTT assay. The assay is classed as cell-based. (In general: Tetrazolium assays rely on reduction of a dye to a coloured formazan, in cell work by metabolically active cells.)
In the next assay the test system is SW-620. The assay is described as follows: Antiproliferative activity against Homo sapiens (human) SW620 cells by MTT assay. The format is functional, cell-based.
The next assay relates to MIA PaCa-2. The assay is described as follows: Antiproliferative activity against Homo sapiens (human) MIAPaCa2 cells by MTT assay. The format is functional, cell-based.
A further assay concerns MCF7. The assay can be described thus: Antiproliferative activity against Homo sapiens (human) MCF7 cells by MTT assay. The assay is classed as functional, cell-based.
The test system of the next assay is HepG2. The assay is described as follows: Antiproliferative activity against Homo sapiens (human) HepG2 cells by MTT assay. The format is functional, cell-based.
Another assay has as its system HeLa. The assay can be described thus: Antiproliferative activity against Homo sapiens (human) HeLa cells by MTT assay. The assay is classed as functional, cell-based.
The next assay has as its system CCRF-CEM. The assay is described as follows: Cytostatic activity against Homo sapiens (human) CEM cells after 72 hr by Coulter counting analysis. The format is functional, cell-based.
The subject of the next assay is MOLT-4. The assay is described as follows: Cytostatic activity against Homo sapiens (human) Molt4/C8 cells after 72 hr by Coulter counting analysis. The assay is classed as functional, cell-based. The settings on record: MOLT-4, 72 h.
A further assay has as its system L1210. The assay is described as follows: Cytostatic activity against Mus musculus (mouse) L1210 cells after 48 hr by Coulter counting analysis. The assay is classed as functional, cell-based.
In assay [6] the test system is Human immunodeficiency virus 2. The assay is described as follows: Antiviral activity against Human immunodeficiency virus type 2 (ISOLATE ROD) infected CEM cells assessed as inhibition of virus-induced giant cell formation after 4 days by microscopic analysis. The format is functional, organism-based. The note with it: Human immunodeficiency virus 2, ISOLATE ROD, CCRF-CEM, 96 h.

Active and inactive are the calls of the source. The rule behind the calls is not given here. Bounds are passed on as bounds.

In the case of `NCCCCn1cnc2c(N)nc(N)nc21`, the outcome (in the assay with Influenza A virus H3N2; with Influenza B virus; in the assay with Influenza A virus; in assay [1]; in the assay with Coxsackievirus B4 [2]; in assay [3]) was inactive. Further, the outcome in the assay on Punta Toro virus, with Coxsackievirus B4 [4], in the assay with Sindbis virus, in the assay on Reovirus sp., in the assay on Human respirovirus 3 and in the assay on Human alphaherpesvirus 2 was inactive. In addition, the outcome in the assay on Human alphaherpesvirus 1 was inactive.
Turning to `NC/C=C\Cn1cnc2c(=O)[nH]cnc21`, the EC50 in [5] and in [6] was not below 100 µM each time. Moreover, the IC50 (as a rule, the midpoint of a concentration-inhibition curve) in the assay with WI-38 was more than 100 µM; in the assay with SW-620 (Homo sapiens, SW-620) it was more than 100 µM; in the assay with MIA PaCa-2 it was more than 100 µM; with MCF7 it was more than 100 µM; in the assay with HepG2 it was more than 100 µM; in the assay on HeLa it was 69.1 µM. For the same compound, the IC50 in the assay with CCRF-CEM was more than 500 µM; with MOLT-4, more than 500 µM; in the assay with L1210 (Mus musculus, L1210, 48 h) it was 114 µM. Further, the result (with Influenza A virus H3N2; in the assay on Influenza B virus; in the assay on Influenza A virus; in assay [1]; with Coxsackievirus B4 [2]; in [3]) was inactive. Further, the result in the assay with Punta Toro virus, with Coxsackievirus B4 [4], in the assay on Sindbis virus, in the assay with Reovirus sp., in the assay with Human respirovirus 3 and in the assay with Human alphaherpesvirus 2 was inactive. In addition, the result in the assay with Human alphaherpesvirus 1 was inactive.
With `NC/C=C\Cn1ccc(=O)[nH]c1=O`, the result (with Influenza A virus H3N2; in the assay on Influenza B virus; with Influenza A virus; in [1]; in the assay on Coxsackievirus B4 [2]; in assay [3]) was inactive. Further, the outcome in the assay with Punta Toro virus, in the assay on Coxsackievirus B4 [4], with Sindbis virus, with Reovirus sp., in the assay on Human respirovirus 3 and in the assay with Human alphaherpesvirus 2 was inactive. Moreover, the outcome in the assay on Human alphaherpesvirus 1 was inactive.
Consider `NC/C=C\Cn1cnc2c(N)nc(N)nc21` [listing 1 of 3 here], for which the result (in the assay with Influenza A virus H3N2; with Influenza B virus; with Influenza A virus; in assay [1]; in the assay on Coxsackievirus B4 [2]; in assay [3]) was inactive. In addition, the outcome in the assay with Punta Toro virus, with Coxsackievirus B4 [4], with Sindbis virus, in the assay with Reovirus sp., with Human respirovirus 3 and in the assay on Human alphaherpesvirus 2 was inactive. Moreover, the result in the assay with Human alphaherpesvirus 1 was inactive.
As for `NCCCCn1cnc2c(-n3cccc3)ncnc21`, the IC50 was more than 100 µM with WI-38; 40.5 µM in the assay with SW-620 (Homo sapiens, SW-620); more than 100 µM in the assay on MIA PaCa-2; more than 100 µM with MCF7; 74.2 µM in the assay with HepG2; 10.9 µM in the assay on HeLa. Also, the IC50 with CCRF-CEM was found to be 115 µM; with MOLT-4, 140 µM; in the assay with L1210 (Mus musculus, L1210, 48 h), 91 µM. For the same compound, the Activity entry with HeLa was “Dose-dependent effect”. The result (in the assay on Influenza A virus H3N2; in the assay with Influenza B virus; in the assay on Influenza A virus; in [1]; in the assay on Coxsackievirus B4 [2]; in [3]) was inactive. Also, the result in the assay on Punta Toro virus, in the assay with Coxsackievirus B4 [4], in the assay with Sindbis virus, in the assay with Reovirus sp., in the assay on Human respirovirus 3 and in the assay with Human alphaherpesvirus 2 was inactive. Also, the result in the assay with Human alphaherpesvirus 1 was inactive.
As for `NC/C=C\Cn1cnc2c(N)nc(N)nc21` [listing 2 of 3 here], the IC50 in the assay with WI-38 was more than 100 µM; in the assay with SW-620 (Homo sapiens, SW-620), more than 100 µM; in the assay with MIA PaCa-2 it was more than 100 µM; in the assay with MCF7 it was more than 100 µM; with HepG2, more than 100 µM; in the assay on HeLa, more than 100 µM. The IC50 is more than 500 µM with CCRF-CEM; more than 500 µM with MOLT-4; more than 500 µM with L1210 (Mus musculus, L1210, 48 h).
Regarding `NC/C=C\Cn1cnc2c(N)nc(N)nc21` [listing 3 of 3 here], the IC50 in the assay with SW-620 (sw-620) was 98.8 µM; in the assay on L1210 (l1210), 350 µM.
For `NC/C=C\Cn1cnc2c(N)ncnc21`, the IC50 is 69.1 µM in the assay on WI-38; 77.1 µM in the assay with SW-620 (Homo sapiens, SW-620); more than 100 µM in the assay on MIA PaCa-2; more than 100 µM in the assay with MCF7; more than 100 µM in the assay on HepG2; more than 100 µM in the assay on HeLa. Besides, the IC50 with CCRF-CEM was 340 µM; in the assay on MOLT-4, 248 µM; with L1210 (Mus musculus, L1210, 48 h) it was 276 µM. Also, the result (in the assay with Influenza A virus H3N2; with Influenza B virus; with Influenza A virus; in [1]; in the assay on Coxsackievirus B4 [2]; in assay [3]) was inactive. In addition, the outcome in the assay on Punta Toro virus, in the assay on Coxsackievirus B4 [4], in the assay on Sindbis virus, in the assay on Reovirus sp., in the assay on Human respirovirus 3 and with Human alphaherpesvirus 2 was inactive. Also, the outcome in the assay on Human alphaherpesvirus 1 was inactive.
Turning to `NC/C=C\Cn1cnc2c(=O)[nH]c(N)nc21`, the EC50 in assay [5] and in assay [6] was 10 µM each time. In addition, the result (with Influenza A virus H3N2; in the assay with Influenza B virus; in the assay on Influenza A virus; in assay [1]; in the assay with Coxsackievirus B4 [2]; in assay [3]) was inactive. Moreover, the outcome in the assay with Punta Toro virus, in the assay with Coxsackievirus B4 [4], in the assay with Sindbis virus, in the assay with Reovirus sp., in the assay on Human respirovirus 3 and in the assay with Human alphaherpesvirus 2 was inactive. For the same compound, in the assay with Human alphaherpesvirus 1, the result was inactive.
In the case of `NC/C=C\Cn1cnc2c(Cl)nc(N)nc21`, the EC50 in assay [5] and in assay [6] was not below 100 µM in each case. Also, the concentration for half-maximal inhibition (IC50) in the assay with WI-38 was more than 100 µM; in the assay with SW-620 (Homo sapiens, SW-620) it was more than 100 µM; with MIA PaCa-2, more than 100 µM; with MCF7, more than 100 µM; with HepG2, more than 100 µM; in the assay on HeLa, 54 µM. Further, the IC50 with CCRF-CEM was more than 500 µM; in the assay on MOLT-4, more than 500 µM; in the assay on L1210 (Mus musculus, L1210, 48 h), more than 500 µM. Further, the Activity result with HeLa was “Dose-dependent effect”. Also, the outcome (in the assay with Influenza A virus H3N2; in the assay on Influenza B virus; in the assay with Influenza A virus; in assay [1]; in the assay on Coxsackievirus B4 [2]; in assay [3]) was inactive. Further, the result in the assay on Punta Toro virus, with Coxsackievirus B4 [4], with Sindbis virus, in the assay with Reovirus sp., in the assay with Human respirovirus 3 and in the assay with Human alphaherpesvirus 2 was inactive. In the assay with Human alphaherpesvirus 1, the outcome was inactive.
